Test results from patent US8952024B2, “Herbicidal pyrimidone derivatives” (E I du Pont de Nemours and Company, priority 2009, dated 2015).
Like-named read-outs stand apart in the source and are kept apart here.

What was measured:
Format in all cases: in vivo
[1] = system: soybean (Glycine max); assay: Test B pre-/postemergence plant response
Method in brief: (§1)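 Response scores were assigned visually after 13 to 15 days in a greenhouse, comparing treated pots with controls on a 0–100 scale where 100 denotes complete control. Preemergence treatments went onto freshly seeded loam/sand soil; postemergence treatments onto plants 2 to 18 cm tall.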

[2] = system: cocklebur (Xanthium strumarium); assay: Test B pre-/postemergence plant response
Method in brief: as §1

[3] = system: wheat (Triticum aestivum); assay: Test B pre-/postemergence plant response
Method in brief: as §1

[4] = system: morningglory (Ipomoea coccinea); assay: Test B pre-/postemergence plant response
Method in brief: as §1

[5] = system: velvetleaf (Abutilon theophrasti); assay: Test A pre-/postemergence plant response; settings: Abutilon theophrasti, 240 h, read-out: Plant response rating, Velvetleaf; for pest or weed control at 125 g/ha: 125 g ai/ha; for pest or weed control at 500 g/ha: 500 g ai/ha, approx. ten days
Method in brief: (§2)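 Pre: directed soil spray on seeded loam/sand blend. Post: same formulation (non-phytotoxic solvent + surfactant) on 2–10 cm plants, 1–2 leaf stage. Greenhouse ~10 d; visual injury score 0–100 vs untreated.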

[6] = system: corn (Zea mays); assay: Test A pre-/postemergence plant response; settings: Zea mays, 240 h; for Corn plant response rating (crop injury, 0 = no effect, 100 = complete kill) at 125 g/ha: 125 g ai/ha; for Corn plant response rating (crop injury, 0 = no effect, 100 = complete kill) at 500 g/ha: 500 g ai/ha, approx. ten days
Method in brief: as §2

[7] = system: pigweed (Amaranthus retroflexus); assay: Test A pre-/postemergence plant response; settings: Amaranthus retroflexus, 240 h, read-out: Plant response rating, Pigweed; for pest or weed control at 125 g/ha: 125 g ai/ha; for pest or weed control at 500 g/ha: 500 g ai/ha, approx. ten days
Method in brief: as §2

[8] = system: barnyardgrass (Echinochloa crus-galli); assay: Test A pre-/postemergence plant response; settings: Echinochloa crus-galli, 240 h, read-out: Plant response rating, Barnyardgrass; for pest or weed control at 125 g/ha: 125 g ai/ha; for pest or weed control at 500 g/ha: 500 g ai/ha, approx. ten days
Method in brief: as §2

[9] = system: large crabgrass (Digitaria sanguinalis); assay: Test A pre-/postemergence plant response; settings: Digitaria sanguinalis, 240 h, read-out: Plant response rating, Crabgrass, Large; for pest or weed control at 125 g/ha: 125 g ai/ha; for pest or weed control at 500 g/ha: 500 g ai/ha, approx. ten days
Method in brief: as §2

[10] = system: wheat (Triticum aestivum); assay: Test A pre-/postemergence plant response; settings: Triticum aestivum, 240 h, read-out: Plant response rating, Wheat; for plant injury at 125 g/ha: 125 g ai/ha; for plant injury at 500 g/ha: 500 g ai/ha, approx. ten days
Method in brief: as §2

[11] = system: giant foxtail (Setaria faberii); assay: Test A pre-/postemergence plant response; settings: Setaria faberi, 240 h, read-out: Plant response rating, Foxtail, Giant; for pest or weed control at 125 g/ha: 125 g ai/ha; for pest or weed control at 500 g/ha: 500 g ai/ha, approx. ten days
Method in brief: as §2

[12] = system: morningglory (Ipomoea spp.); assay: Test A pre-/postemergence plant response; settings: Ipomoea, 240 h, read-out: Plant response rating, Morningglory; for pest or weed control at 125 g/ha: 125 g ai/ha; for pest or weed control at 500 g/ha: 500 g ai/ha, approx. ten days
Method in brief: as §2

[13] = 62 g ai/ha, postemergence, 0 is no effect, 100 is complete control, 13 to 15 days
[14] = post-emergence, Postemergence, 0 to 100 scale where 0 is no effect and 100 is complete control
[15] = post-emergence, Postemergence, 0 to 100 scale, 0 = no effect, 100 = complete control
[16] = pre-emergence, Preemergence, 0 to 100 scale, 0 = no effect, 100 = complete control
[17] = pre-emergence, Preemergence, visual injury, 0 to 100 scale (0 no effect, 100 complete control)

Q: With `COCCn1c(-c2ccsc2)ncc(C(=O)C2=C(O)CCCC2=O)c1=O` [Compound 97, 5-[(2-hydroxy-6-oxo-1-cyclohexen-1-yl)carbonyl]-3-(2-methoxyethyl)-2-(3-thienyl)-4(3H)-pyrimidinone] as the compound, how does the “Soybean plant response rating (0 to 100 scale)” value [1, 13] read?
A: 80

Q: And the plant injury at 31 g/ha ([1]; Glycine max, post-emergence, 31 g ai/ha, postemergence, scale 0 to 100, 0 is no effect, 100 is complete control, read-out: Plant response rating, Soybean)?
A: 70%

Q: What about the plant injury at 250 g/ha ([1]; Glycine max, post-emergence, Postemergence, 250 g ai/ha, scale 0 to 100 (0 no effect, 100 complete control), read-out: Plant response rating, Soybean) of the same compound?
A: 100%

Q: What about the “Cocklebur plant response rating (0 to 100 scale)” value [2, 13] of the same compound?
A: 100

Q: What about the pest or weed control at 31 g/ha ([2]; Xanthium strumarium, post-emergence, 31 g ai/ha, postemergence, scale 0 to 100, 0 is no effect, 100 is complete control, read-out: Plant response rating, Cocklebur) of the same compound?
A: 95%

Q: What about the pest or weed control at 125 g/ha ([2]; Xanthium strumarium, post-emergence, Postemergence, 125 g ai/ha, visual rating after 13 to 15 days, scale 0 (no effect) to 100 (complete control)) of the same compound?
A: 100%

Q: And the pest or weed control at 250 g/ha ([2]; Xanthium strumarium, post-emergence, Postemergence, 250 g ai/ha, scale 0 to 100 (0 no effect, 100 complete control), read-out: Plant response rating, Cocklebur)?
A: 100%

Q: And the “Wheat plant response rating (0 to 100 scale)” value [3, 13]?
A: 0

Q: What about the plant injury at 31 g/ha ([3]; Triticum aestivum, post-emergence, 31 g ai/ha, postemergence, scale 0 to 100, 0 is no effect, 100 is complete control, read-out: Plant response rating, Wheat) of the same compound?
A: 0%

Q: And the plant injury at 250 g/ha ([3]; Triticum aestivum, post-emergence, Postemergence, 250 g ai/ha, scale 0 to 100 (0 no effect, 100 complete control), read-out: Plant response rating, Wheat)?
A: 5%

Q: And the “Morningglory plant response rating (0 to 100 scale)” value [4, 13]?
A: 100

Q: What about the pest or weed control at 31 g/ha ([4]; Ipomoea, post-emergence, 31 g ai/ha, postemergence, scale 0 to 100, 0 is no effect, 100 is complete control, read-out: Plant response rating, Morningglory) of the same compound?
A: 100%

Q: What about the pest or weed control at 250 g/ha ([4]; Ipomoea, post-emergence, Postemergence, 250 g ai/ha, scale 0 to 100 (0 no effect, 100 complete control), read-out: Plant response rating, Morningglory) of the same compound?
A: 100%

Q: What about the pest or weed control at 125 g/ha [5, 14] of the same compound?
A: 100%

Q: And the pest or weed control at 500 g/ha [5, 15]?
A: 100%

Q: What about the pest or weed control at 125 g/ha [5, 16] of the same compound?
A: 100%

Q: What about the pest or weed control at 500 g/ha [5, 17] of the same compound?
A: 100%

Q: And the Corn plant response rating (crop injury, 0 = no effect, 100 = complete kill) at 125 g/ha [6, 14]?
A: 50%

Q: And the Corn plant response rating (crop injury, 0 = no effect, 100 = complete kill) at 500 g/ha [6, 15]?
A: 80%

Q: What about the Corn plant response rating (crop injury, 0 = no effect, 100 = complete kill) at 125 g/ha [6, 16] of the same compound?
A: 0%

Q: And the Corn plant response rating (crop injury, 0 = no effect, 100 = complete kill) at 500 g/ha [6, 17]?
A: 0%

Q: And the pest or weed control at 125 g/ha [7, 14]?
A: 100%

Q: What about the pest or weed control at 500 g/ha [7, 15] of the same compound?
A: 100%

Q: What about the pest or weed control at 125 g/ha [7, 16] of the same compound?
A: 100%

Q: What about the pest or weed control at 500 g/ha [7, 17] of the same compound?
A: 100%

Q: And the pest or weed control at 125 g/ha [8, 14]?
A: 90%

Q: What about the pest or weed control at 500 g/ha [8, 15] of the same compound?
A: 90%

Q: And the pest or weed control at 125 g/ha [8, 16]?
A: 60%

Q: And the pest or weed control at 500 g/ha [8, 17]?
A: 100%

Q: And the pest or weed control at 125 g/ha [9, 14]?
A: 80%

Q: What about the pest or weed control at 500 g/ha [9, 15] of the same compound?
A: 100%

Q: What about the pest or weed control at 125 g/ha [9, 16] of the same compound?
A: 100%

Q: And the pest or weed control at 500 g/ha [9, 17]?
A: 100%

Q: And the plant injury at 125 g/ha [10, 14]?
A: 0%

Q: What about the plant injury at 500 g/ha [10, 15] of the same compound?
A: 20%

Q: What about the plant injury at 125 g/ha [10, 16] of the same compound?
A: 0%

Q: And the plant injury at 500 g/ha [10, 17]?
A: 0%

Q: And the pest or weed control at 125 g/ha [11, 14]?
A: 60%

Q: What about the pest or weed control at 500 g/ha [11, 15] of the same compound?
A: 80%

Q: What about the pest or weed control at 125 g/ha [11, 16] of the same compound?
A: 60%

Q: What about the pest or weed control at 500 g/ha [11, 17] of the same compound?
A: 90%

Q: What about the pest or weed control at 125 g/ha [12, 14] of the same compound?
A: 100%

Q: What about the pest or weed control at 500 g/ha [12, 15] of the same compound?
A: 100%

Q: What about the pest or weed control at 125 g/ha [12, 16] of the same compound?
A: 70%

Q: And the pest or weed control at 500 g/ha [12, 17]?
A: 80%
